# From PubChem BioAssay AID2060900 (Molecular Pharmacology Branch, DTP, NCI, 2025)
# System: 521955-158-R2-J5-PDC complex spheroids, viability
# Test: Anticancer human tumor 521955-158-R2-J5-PDC patient-derived pancreatic carcinoma cell line growth inhibition [RAS]
# Conditions: for IC50: curve of first compound; for viability, T/C: stronger effect = lower value
# Outline: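 Tumour cells grown as complex spheroids with HUVEC endothelial cells and mesenchymal stem cells, treated with RAS pathway inhibitor combinations. Each agent spans half-log steps from near clinical Cmax, or 10 microM where Cmax is unknown.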
# 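Further: compound exposure lasted seven days before the viability read.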
# 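Wherever viability, T/C is given: spheroids also contain HUVEC endothelial cells and mesenchymal stem cells as stroma.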
smiles,measurement,setting,value
C=CC(=O)Nc1cc(Nc2nccc(-c3cn(C)c4ccccc34)n2)c(OC)cc1N(C)CCN(C)C + CCn1c(-c2cc(N3CCN(C)CC3)cnc2C(C)OC)c2c3cc(ccc31)-c1csc(n1)CC(NC(=O)C1CC1C)C(=O)N1CCCC(N1)C(=O)OCC(C)(C)C2,IC50,second compound 0.000949 µM,< 3.16 nM
same,IC50,second compound 0.003 µM,< 3.16 nM
same,IC50,second compound 0.00949 µM,< 3.16 nM
same,IC50,second compound 0.03 µM,< 3.16 nM
same,IC50,second compound 0.0949 µM,< 3.16 nM
same,IC50,second compound 0.3 µM,< 3.16 nM
same,"viability, T/C","second compound 0.000949 µM, first compound 0.00316 µM",44.6%
same,"viability, T/C","second compound 0.000949 µM, first compound 0.01 µM",53.5%
same,"viability, T/C","second compound 0.000949 µM, first compound 0.0316 µM",38.4%
same,"viability, T/C","second compound 0.000949 µM, first compound 0.1 µM",43.4%
same,"viability, T/C","second compound 0.000949 µM, first compound 0.316 µM",35.7%
same,"viability, T/C","second compound 0.000949 µM, first compound 1 µM",23.1%
same,"viability, T/C","second compound 0.003 µM, first compound 0.00316 µM",40.9%
same,"viability, T/C","second compound 0.003 µM, first compound 0.01 µM",46.9%
same,"viability, T/C","second compound 0.003 µM, first compound 0.0316 µM",50.2%
same,"viability, T/C","second compound 0.003 µM, first compound 0.1 µM",43.5%
same,"viability, T/C","second compound 0.003 µM, first compound 0.316 µM",35.3%
same,"viability, T/C","second compound 0.003 µM, first compound 1 µM",18.7%
same,"viability, T/C","second compound 0.00949 µM, first compound 0.00316 µM",41.3%
same,"viability, T/C","second compound 0.00949 µM, first compound 0.01 µM",39.6%
same,"viability, T/C","second compound 0.00949 µM, first compound 0.0316 µM",27.2%
same,"viability, T/C","second compound 0.00949 µM, first compound 0.1 µM",31.3%
same,"viability, T/C","second compound 0.00949 µM, first compound 0.316 µM",21.5%
same,"viability, T/C","second compound 0.00949 µM, first compound 1 µM",8.47%
same,"viability, T/C","second compound 0.03 µM, first compound 0.00316 µM",19.2%
same,"viability, T/C","second compound 0.03 µM, first compound 0.01 µM",23.2%
same,"viability, T/C","second compound 0.03 µM, first compound 0.0316 µM",19.4%
same,"viability, T/C","second compound 0.03 µM, first compound 0.1 µM",18.8%
same,"viability, T/C","second compound 0.03 µM, first compound 0.316 µM",14.4%
same,"viability, T/C","second compound 0.03 µM, first compound 1 µM",5.46%
same,"viability, T/C","second compound 0.0949 µM, first compound 0.00316 µM",16%
same,"viability, T/C","second compound 0.0949 µM, first compound 0.01 µM",9.37%
same,"viability, T/C","second compound 0.0949 µM, first compound 0.0316 µM",12.8%
same,"viability, T/C","second compound 0.0949 µM, first compound 0.1 µM",8.37%
same,"viability, T/C","second compound 0.0949 µM, first compound 0.316 µM",11.6%
same,"viability, T/C","second compound 0.0949 µM, first compound 1 µM",2.68%
same,"viability, T/C","second compound 0.3 µM, first compound 0.00316 µM",16.4%
same,"viability, T/C","second compound 0.3 µM, first compound 0.01 µM",10.6%
same,"viability, T/C","second compound 0.3 µM, first compound 0.0316 µM",9.7%
same,"viability, T/C","second compound 0.3 µM, first compound 0.1 µM",8.57%
same,"viability, T/C","second compound 0.3 µM, first compound 0.316 µM",6.24%
same,"viability, T/C","second compound 0.3 µM, first compound 1 µM",3.02%
CC(Nc1ccc2c(c1)OCCn1cc(N3C(=O)OCC3C(F)F)nc1-2)C(N)=O (centres undefined) + C#Cc1c(F)ccc2cc(O)cc(-c3ncc4c(N5CC6CCC(C5)N6)nc(OCC56CCCN5CC(F)C6)nc4c3F)c12,IC50,second compound 0.0316 µM,55.4 nM
same,IC50,second compound 0.1 µM,< 31.6 nM
same,IC50,second compound 0.316 µM,< 31.6 nM
same,IC50,second compound 1 µM,< 31.6 nM
same,IC50,second compound 3.16 µM,< 31.6 nM
same,IC50,second compound 10 µM,< 31.6 nM
same,"viability, T/C","second compound 0.0316 µM, first compound 0.0316 µM",60.7%
same,"viability, T/C","second compound 0.0316 µM, first compound 0.1 µM",37.6%
same,"viability, T/C","second compound 0.0316 µM, first compound 0.316 µM",28.7%
same,"viability, T/C","second compound 0.0316 µM, first compound 1 µM",17.1%
same,"viability, T/C","second compound 0.0316 µM, first compound 3.16 µM",12.9%
same,"viability, T/C","second compound 0.0316 µM, first compound 10 µM",11.9%
same,"viability, T/C","second compound 0.1 µM, first compound 0.0316 µM",46.9%
same,"viability, T/C","second compound 0.1 µM, first compound 0.1 µM",31.9%
same,"viability, T/C","second compound 0.1 µM, first compound 0.316 µM",24.3%
same,"viability, T/C","second compound 0.1 µM, first compound 1 µM",16%
same,"viability, T/C","second compound 0.1 µM, first compound 3.16 µM",13.6%
same,"viability, T/C","second compound 0.1 µM, first compound 10 µM",11.3%
same,"viability, T/C","second compound 0.316 µM, first compound 0.0316 µM",48.1%
same,"viability, T/C","second compound 0.316 µM, first compound 0.1 µM",35.1%
same,"viability, T/C","second compound 0.316 µM, first compound 0.316 µM",18.7%
same,"viability, T/C","second compound 0.316 µM, first compound 1 µM",16%
same,"viability, T/C","second compound 0.316 µM, first compound 3.16 µM",10.8%
same,"viability, T/C","second compound 0.316 µM, first compound 10 µM",10.2%
same,"viability, T/C","second compound 1 µM, first compound 0.0316 µM",36%
same,"viability, T/C","second compound 1 µM, first compound 0.1 µM",28.7%
same,"viability, T/C","second compound 1 µM, first compound 0.316 µM",18.2%
same,"viability, T/C","second compound 1 µM, first compound 1 µM",16.7%
same,"viability, T/C","second compound 1 µM, first compound 3.16 µM",11.7%
same,"viability, T/C","second compound 1 µM, first compound 10 µM",8.56%
same,"viability, T/C","second compound 3.16 µM, first compound 0.0316 µM",32.7%
same,"viability, T/C","second compound 3.16 µM, first compound 0.1 µM",25.3%
same,"viability, T/C","second compound 3.16 µM, first compound 0.316 µM",16.3%
same,"viability, T/C","second compound 3.16 µM, first compound 1 µM",11%
same,"viability, T/C","second compound 3.16 µM, first compound 3.16 µM",8.73%
same,"viability, T/C","second compound 3.16 µM, first compound 10 µM",6.29%
same,"viability, T/C","second compound 10 µM, first compound 0.0316 µM",26.5%
same,"viability, T/C","second compound 10 µM, first compound 0.1 µM",16.8%
same,"viability, T/C","second compound 10 µM, first compound 0.316 µM",8.86%
same,"viability, T/C","second compound 10 µM, first compound 1 µM",4.7%
same,"viability, T/C","second compound 10 µM, first compound 3.16 µM",2.91%
same,"viability, T/C","second compound 10 µM, first compound 10 µM",1.54%
